Experimental data reported in US7432247B2, “Methods of cardioprotection using dichloroacetate in combination with an inotrope” (The Governors of the University of Alberta, priority 2002, dated 2008).
Values joined by “and” are separate entries in the source; they are usually repeats but may differ in a detail not shown here. Equal entries are not always repeated.

Columns and labels:
Assay type in all cases: in vivo, human
[1] = Plasma DCA levels after 50 mg/kg bolus in adult CABG patients (Example A); conditions: 50 mg/kg Na+ dichloroacetate, 1 hour following administration, n = 8 adult patients
Method: […] Based on the pharmacokinetics of DCA, we anticipated that this would produce a plasma concentration of approximately 1 mM. The study consisted of 8 DCA-treated patients and 10 placebo-treated patients.
[…] The coded solution was made such that a dose of 1 ml/kg provides the appropriate dose of DCA or placebo. Based on the pharmacokinetics of DCA, this was expected to result in a plasma level of DCA in the therapeutic range of (1 mM). All blood samples were analyzed by HPLC for DCA concentration.
Plasma samples were processed for DCA levels using a high performance liquid chromatography (HPLC) technique that separated the DCA from other plasma constituents. In brief, 20 μl of plasma sample was injected into a Beckman Gold HPLC containing a IonoBpher 5A column (250×4.6 mm LxID) and a AX Guard Column. The mobile phase of the column consisted of 10^-3 M pyromellitate buffer (pH=4.0). The flow rate of the HPLC was set at 3.0 ml/min and the DCA eluted from the column was detected by comparing DCA elution times to acetate, monochloroacetate, and trichloroacetate standards. Heart ventricular biopsy samples were taken at 0, and 20 minutes, and at 1 hour, following release of the cross clamp and reperfusion of the heart muscle, and immediately frozen in liquid N2. Blood samples were also taken at various intervals during the reperfusion period between 0 to 24 hours post-surgery.

[2] = Mortality in the adult CABG study (Example A); conditions: DCA group, 8 adult patients, 50 mg/kg bolus
Method: DCA or saline was administered to 18 patients undergoing elective cardiac bypass grafting surgery (CABG) in a double blinded randomized manner DCA (50 mg/kg in 100 ml of saline) or placebo was injected into the aortic root, immediately prior to removing aortic cross clamp. Based on the pharmacokinetics of DCA, we anticipated that this would produce a plasma concentration of approximately 1 mM. The study consisted of 8 DCA-treated patients and 10 placebo-treated patients.
The intervention involved DCA (50 mg/kg) or placebo injected into the aortic root immediately prior to removing aortic cross clamp. The coded solution was made such that a dose of 1 ml/kg provides the appropriate dose of DCA or placebo. Based on the pharmacokinetics of DCA, this was expected to result in a plasma level of DCA in the therapeutic range of (1 mM). All blood samples were analyzed by HPLC for DCA concentration.

[3] = DCA plasma levels in pediatric heart surgery patients, bolus and 24 hour infusion (Example C); conditions: for Average Optimum Mean of DCA Plasma Levels, mM at 1 hr / Average Optimum Mean of DCA Plasma Levels, mM at 6 hr / Average Optimum Mean of DCA Plasma Levels, mM at 12 hr / Average Optimum Mean of DCA Plasma Levels, mM at 24 hr: patients with greatest degree of clinical benefits
Method: (§1) In this trial, 53 infants were recruited to participate in a study, of which 51 patients met inclusion criteria after parental consent. Two dosing groups resulted from the study team changing the dosing protocol after the data from the initial 10 patients were analyzed. The data from patients number 1 to number 10 was analyzed for DCA therapeutic blood levels and therapeutic effect. A recommendation by the research team was made to increase the bolus dose of DCA and to decrease the infusion dose of DCA to maintain a DCA dose range of 1 mM for 24 hours. The intent was to administer the new protocol at patient number 20. The 1997 Epicore power calculations were based on separation of the study groups patients into group A of n=20 patients and Group B of n=31 patients
(§2) DCA (50 mg/kg) or placebo was injected into the aortic root immediately prior to removing aortic cross clamp. The coded solutions were made such that a dose of 1 ml/kg provided either a DCA therapeutic level of 1 mM plasma concentration of DCA, or a placebo solution. Immediately thereafter, an infusion of DCA at 25 mg/kg/hr or placebo in the same volume was initiated and run for 24 hours. Based on the pharmacokinetics of DCA, this was expected to maintain plasma levels of DCA in the therapeutic range of (0.2-1 mM). However, the plasma concentrations of DCA were below 1 mM after the first hour interval, and that the 24 hour plasma concentrations were elevated above 1 mM DCA levels at the 24 hour interval, a decision was made to modify the dosing protocol. This change in dosing protocol was approved by the Ethics Committee, but not implemented until patient number 24. All blood samples were analyzed by HPLC for DCA concentration. • (ii) Group B
(§3) DCA (100 mg/kg) or placebo was injected into the aortic root immediately prior to removing aortic cross clamp. The coded solutions were made such that a dose of 1 ml/kg provided either a DCA therapeutic level of 1 mM plasma concentration of DCA, or a placebo solution. Immediately thereafter, an infusion of DCA at 12.5 mg/kg/hr or placebo in the same volume was initiated and run for 24 hours. Based on the pharmacokinetics of DCA, this was expected to maintain plasma levels of DCA in the therapeutic range of (0.2-1 mM). All blood samples were analyzed by HPLC for DCA concentration.
Arterial blood samples were obtained from patients at the following times:
c. One hour after discontinuing cardiopulmonary bypass.
d. Six hours after discontinuing cardiopulmonary bypass
e. Twelve hours after discontinuing cardiopulmonary bypass.
f. Twenty four hours after discontinuing cardiopulmonary bypass.
Blood samples were collected from indwelling arterial lines into citrate-containing tubes (0.5 ml blood samples). The samples were spun in the microfuge, the plasma separated, and frozen immediately for later analysis. All plasma samples were stored at −80 degrees centigrade, until further processing. Plasma glucose and lactate were determined using a Sigma glucose kit and a spectrophotometric assay involving lactate dehydrogenase respectively. Plasma fatty acid levels were measured using an ELISA system and WAKO free fatty acid kit.

[4] = Pediatric heart surgery study, DCA bolus and infusion vs placebo: inotrope score, ICU time, ventilator time (Example C); parameters: reduction of Inotrope Score compared to placebo: concentration or dose not given beside the values; conditions: for average decrease in Inotrope Score per patient compared to placebo: over the 24 hour period
Method: This study was a randomized, placebo-controlled, double blinded, single surgeon, study of the use of DCA in 51 high-risk pediatric patients requiring heart surgery to correct complex congenital heart lesions.
as §1, §2, §3
In both the operating room at the end of cardiopulmonary bypass and in the intensive care unit, parenteral drugs were scored on an hourly basis with 1 point allotted for each level for each bolus or infusion given within the previous hour within the first 24 hours post-operatively. Thus at the end of 24 hours, high scores indicated poorer cardiac function.

[5] = Observed side effects of DCA in patients
[6] = Group A: 50 mg/kg bolus and 25 mg/kg/hr infusion
[7] = Group B: 100 mg/kg bolus and 12.5 mg/kg/hr infusion
[8] = Group A: 50 mg/kg bolus and 25 mg/kg/hour infusion
[9] = Group A: 50 mg/kg bolus and 25 mg/kg/hour infusion, 23 patients
[10] = Group B: 100 mg/kg bolus and 12.5 mg/kg/hour infusion
[11] = Group B: 100 mg/kg bolus and 12.5 mg/kg/hour infusion, 24 patients

**Q.** Which “Plasma Dichloroacetate Levels” value [1] does the source give for `O=C(O)C(Cl)Cl` [DCA, dichloroacetate] here?
**A.** approximately 1 mM

**Q.** And the “Plasma Dichloroacetate Levels” value ([1]; listed as Dichloroacetate)?
**A.** 0.948 ± 0.061 mM

**Q.** What about the mortality [2] of the same compound?
**A.** no mortalities

**Q.** And the “optimum mean DCA plasma level” value ([3]; Example C, Group B, 1 to 6 hour interval)?
**A.** 1 mM

**Q.** And the “Average DCA Plasma Levels, mM at 6 hr” value [3, 6]?
**A.** 1.134 mM

**Q.** What about the “Average DCA Plasma Levels, mM at 12 hr” value [3, 6] of the same compound?
**A.** 1.771 mM

**Q.** What about the “Average Optimum Mean of DCA Plasma Levels, mM at 1 hr” value [3, 6] of the same compound?
**A.** 1.0 mM

**Q.** What about the “Average Optimum Mean of DCA Plasma Levels, mM at 6 hr” value [3, 6] of the same compound?
**A.** 0.916 mM

**Q.** And the “Average Optimum Mean of DCA Plasma Levels, mM at 12 hr” value [3, 6]?
**A.** 1.52 mM and 1.523 mM

**Q.** What about the “Average Optimum Mean of DCA Plasma Levels, mM at 24 hr” value [3, 6] of the same compound?
**A.** 2.29 mM and 2.288 mM

**Q.** What about the “Average DCA Plasma Levels, mM at 1 hr” value [3, 7] of the same compound?
**A.** 1.131 mM

**Q.** And the “Average DCA Plasma Levels, mM at 6 hr” value [3, 7]?
**A.** .894 mM

**Q.** What about the “Average DCA Plasma Levels, mM at 12 hr” value [3, 7] of the same compound?
**A.** 1.427 mM

**Q.** And the “Average DCA Plasma Levels, mM at 24 hr” value [3, 7]?
**A.** 2.231 mM

**Q.** And the “Average Optimum Mean of DCA Plasma Levels, mM at 1 hr” value [3, 7]?
**A.** 1.012 mM

**Q.** And the “Average Optimum Mean of DCA Plasma Levels, mM at 6 hr” value [3, 7]?
**A.** 1.0 mM

**Q.** And the “Average Optimum Mean of DCA Plasma Levels, mM at 12 hr” value [3, 7]?
**A.** 1.0 mM

**Q.** And the “Average Optimum Mean of DCA Plasma Levels, mM at 24 hr” value [3, 7]?
**A.** 1.0 mM

**Q.** What about the “decrease of ventilator time compared to placebo” value [4, 8] of the same compound?
**A.** 47%

**Q.** And the “reduction of ventilator time compared to placebo” value [4, 8]?
**A.** 46 h

**Q.** What about the “decrease of time in ICU compared to placebo” value [4, 9] of the same compound?
**A.** 41%

**Q.** And the “reduction of time in ICU compared to placebo” value [4, 9]?
**A.** 60 h

**Q.** And the “reduction of Inotrope Score compared to placebo” value (from here on “reduction of Inotrope Score”) ([4]; Group A, by 1 hour)?
**A.** 50%

**Q.** What about the “reduction of Inotrope Score” value ([4]; Group A, by 12 hours) of the same compound?
**A.** 45%

**Q.** And the “reduction of Inotrope Score” value ([4]; Group A, by 24 hours)?
**A.** 38%

**Q.** What about the “average decrease in Inotrope Score per patient compared to placebo” value ([4]; Group A) of the same compound?
**A.** 44%

**Q.** What about the “decrease of ventilator time compared to placebo” value [4, 10] of the same compound?
**A.** 23%

**Q.** And the “reduction of ventilator time compared to placebo” value [4, 10]?
**A.** 18 h and 19 h

**Q.** What about the “decrease of time in ICU compared to placebo” value [4, 11] of the same compound?
**A.** 40%

**Q.** What about the “reduction of time in ICU compared to placebo” value [4, 11] of the same compound?
**A.** 50 h

**Q.** And the “reduction of Inotrope Score” value ([4]; Group B, by 1 hour)?
**A.** 57%

**Q.** And the “reduction of Inotrope Score” value ([4]; Group B, by 12 hours)?
**A.** 49%

**Q.** And the “reduction of Inotrope Score” value ([4]; Group B, by 24 hours)?
**A.** 45%

**Q.** What about the “average decrease in Inotrope Score per patient compared to placebo” value ([4]; Group B) of the same compound?
**A.** 51%

**Q.** And the side-effects ([5]; patients)?
**A.** not have significant side-effects, although some patients experience mild drowsiness

**Q.** And the “adverse effects in previous (pilot) studies” value ([5]; previous studies)?
**A.** no adverse effects
